Measured values published in patent publication US9126993B2, “Glucosylceramide synthase inhibitors” (GENZYME CORPORATION, priority 2011, dated 2015).

Assays:
K14 mice [1] = experiment: Survival of K14 mice; type: in vivo, mouse; conditions: GZ 161 5 mg/kg IP daily from P4, combination: plus ICV rhGC at P1, 2, 3
Description: (§1) To determine if further benefits could be achieved by prenatal exposure to GZ 161, a subset of pregnant K14 females received GZ 161 in food using a formulation calculated to provide 20 mg/kg/day during the final 5-7 days of gestation. Females receiving GZ 161 were switched to standard diet after delivery and the pups received daily IP injections of GZ 161 at a dose of 5 mg/kg (10 μl per gram of body weight) starting at P 1. A set of WT pups born to females receiving the drug or standard formula was sacrificed immediately after birth to determine whether in utero exposure to GZ 161 could reduce brain GSL levels.
An animal model of neuropathic Gaucher disease (nGD) identified as K14 were cryoanesthesized and received 2 μl bilateral intracerebroventricular (ICV) injections of either rhGC at 2 mg/ml or vehicle as previously described. (Cabrera-Salazar et al. (2010)) The injected pups were monitored for recovery and returned to the mother following the procedure.
K14 mice received daily intraperitoneal injections of GZ 161 at a dose of 5 mg/kg of body weight as described above. A separate cohort of animals also received ICV injections of GC at postnatal days 1, 2 and 3 followed by daily IP injections of GZ 161. […] All animals were monitored daily for the development of neurological complications. […] This time point was recorded as end of life and analyzed using Kaplan-Meier plots. […]

WT mice = experiment: In utero exposure: brain GluCer in newborn WT mice; type: in vivo, mouse
Description: as §1
(§2) Quantitative sphingolipid analysis was performed by liquid chromatography and tandem mass spectrometry (LC/MS/MS) as previously described in Merrill et al., Methods 36: 207-224 (2005). Briefly, 10 μl of brain tissue homogenate (tissue weight/water:100 mg/ml) was extracted with 1.00 ml of an organic solvent mixture (97% acetonitrile, 2% methanol, and 1% acetic acid, v/v) and vortexed vigorously for 10 min. Extracted sphingolipids (GluCer and GluSph) were directly separated by hydrophilic liquid chromatography (Atlantis HILIC column, Waters Corp.) and analyzed by triple quadrupole tandem mass spectrometry (API 4000, Applied Biosystems/MDS SCIEX) and compared with sphingolipid standards (Matreya, LLC; Pleasant Gap, Pa.)
Values shown correspond to means and error bars represent standard error of the mean. Comparisons between groups were analyzed by a one-way analysis of variance followed by Tukey's multiple comparison test. Comparison of substrate reduction in utero was analyzed by the unpaired t test with Welch's correction. Kaplan-Meier survival curves were analyzed using the log-rank test equivalent to the Mantel-Haenszel test. All statistical analyses were performed using GraphPad Prism v4.0 (GraphPad Software, San Diego, Calif.). Differences between group means with p<0.05 were considered significant.

Fabry mice = experiment: Substrate reduction therapy in Fabry mouse model: Gb3 and lyso-Gb3 levels; type: in vivo; conditions: male and female Fabry mice treated 4 months from ~8 months old; GZ 452 60 and 120 mg/kg/day, GZ 161 20 mg/kg/day
Description: In the following experiments, mice dosed with GCS inhibitors at either ˜60 mg/kg/day of (S)-Quinuclidin-3-yl(2-(2-(4-fluorophenyl)thiazol-4-yl)propan-2-yl)carbamate (S)-2-hydroxysuccinate salt (hereinafter “GZ 452”) or ˜300 mg/kg/day of (1R,2R)-Octanoic acid[2-(2′,3′-dihydro-benzo[1,4] dioxin-6′-yl)-2-hydroxy-1-pyrrolidin-1-ylmethyl-ethyl]-amide-L-tartaric acid salt (hereinafter “GZ 638”) as a component of the pelleted food diet provided ad libitum. Lipid analysis was by ESI/MS as described in Marshall et al., PLoS ONE 5:e15033 (2010). As discussed in further detail below, treatment started when the mice were 3, 8 or 12 months of age to test the efficacy at different disease severities. Blood and urine was collected monthly and periodic tissue harvests provided materials to evaluate efficacy of the therapy (Gb3 and lyso-Gb3 levels). […] As further discussed below, the efficacy of SMT was affected by the age of the mice at the start of treatment. Generally, the older the mouse, the higher the levels of Gb3 stored and thus a longer period of treatment was required in order to affect similar therapeutic benefit (see FIG. 4). The experiments and results are described further below.
In this experiment, Fabry mice were treated with GCS inhibitors in their diet for 4 months starting at 8 months old. […] Age-matched wild-type levels (WT) are also shown. […]

K14 mice [2] = experiment: Brain GluCer and GluSph levels in K14 mouse model of type 2 Gaucher disease; type: in vivo
Description: Newborn mice received daily 5 mg/kg intraperitoneal injections of Quinuclidin-3-yl(2-(4′-fluoro-[1, l′-biphenyl]-3-yl)propan-2-yl)carbamate (hereinafter “GZ 161”) in a volume of 10 μl/gram of body weight starting at postnatal day 4. K14 mice and wild type littermates were humanely sacrificed at postnatal day 10 (pre-symptomatic) and at day 14 (humane endpoint) to evaluate glycosphingolipid (GSL) levels. Mice received a 150 mg/kg dose of pentobarbital (Euthasol, Virbac Inc, Fort Worth, Tex.) and were transcardially perfused with cold 0.9% NaCl solution. Brains were dissected and divided; one hemisphere was used for GSL analysis and the other was fixed in 4% paraformaldehyde for 96 hours and processed for histology.
as §2

[3] = K14 mice, 5 mg/kg IP daily from P4, brains analyzed at P10
[4] = daily IP, compared to vehicle-treated K14 mice at the humane endpoint (14-15 days of age)

SMILES: CC(C)(NC(=O)OC1CN2CCC1CC2)c1cccc(-c2ccc(F)cc2)c1 (centres unmarked) [GZ 161, Quinuclidin-3-yl(2-(4′-fluoro-[1,1′-biphenyl]-3-yl)propan-2-yl)carbamate]
- median lifespan (K14 mice [1]): 18 days
- decrease in GluCer levels in the newborn mouse brain (P0) (WT mice; WT dams treated, 20 mg/kg/day in food): ~5 fold
- crossing the blood/placental barrier (WT mice; inferred from reduced GluCer in newborn brain after dosing pregnant WT mice): appears to cross the blood/placental barrier
- GluCer load in whole brain homogenates at birth (P0) (WT mice; pregnant WT mice, 20 mg/kg/day in food): reduces the GluCer load
- Gb3 in kidney tissue relative to untreated controls (Fabry mice): significantly reduced the amount of Gb3
- brain GluCer level reduction (K14 mice [2]; [3]): ~70%
- brain GluSph level reduction (K14 mice [2]; [3]): ~60%
- brain GluCer level reduction (K14 mice [2]; [4]): > 60%
- brain GluSph level reduction (K14 mice [2]; [4]): > 60%
- symptom status of treated K14 mice (K14 mice [2]; daily IP, time point of brain analysis): asymptomatic
- crossing the blood brain barrier (K14 mice [2]; inferred from reduction of brain glycosphingolipids after systemic (IP) administration): capable of crossing the blood brain barrier
